{
  "source": "patent US9023817B2",
  "about": "“Use of albiflorin for anti-depression” (priority 2009, dated 2015)",
  "key": {"[1]": {"tested_on": "serotonin in the brain of rat", "test": "Serotonin in the brain of rat with chronic stress (HPLC-ECD, prefrontal cortex)", "assay_type": "in vivo, SD rats", "details": "3.5 mg/kg/d gavage for 21 days", "protocol": "After being fed without water for 24 hours, SD rats were administered with 1% aqueous sucrose, the consumption of aqueous sucrose was measured for 1 hour. The rats were randomly divided into six groups (n=12 for each group) according to the consumptions of aqueous sucrose, i.e. vehicle group, model group, positive control group of Fluoroxetine Hydrochloride (2.5 mg/kg/d), high-dose group (14 mg/kg/day), medium-dose group (7 mg/kg/day), and low-dose group (3.5 mg/kg/day) of Albiflorin. The gavage was carried out along with the model establishment, once a day, for 21 days. Each group was administered at a dose of 1.0 ml/100 g weight, and weighed once a week.\nThe rats were fed at 6/cage as vehicle group, with normal diets and drinking water, and without any stimulation.\nThe rats were fed at 1/cage as the other five groups, and subjected to unpredicted stress stimulations for 21 days, including: swimming in ice water, drying, tail nipping, wet feeding, reversed day and night, fasting, water deprivation and the like. One kind of stimulations was randomly given for each day.\nThe animal was executed by decapitation, the brain of it was quickly stripped on the ice, the prefrontal cortex was taken out, then placed into frozen tissue tube after weighting, rapidly frozen with liquid nitrogen, and placed into the refrigerator at −70° C. until test."}, "ICR mice [2]": {"tested_on": "ICR mice", "test": "Forced swimming test in mice", "assay_type": "in vivo", "details": "3.5 mg/kg/d by gavage for two days; 1 h after administration; last 4 min", "protocol": "Each group was administered by gavage at a dose of 0.2 ml/10 g weight, for two days, deionized water was administered to vehicle group.\nIn the second day, 1 h after the administration, the mice were placed separately into a water cylinder with 20 cm of height, 18 cm of diameter, 10 cm of depth, 23±2° C. of water temperature; observing each for 6 min, after 2 min of adaption, the immobility time over the last 4 min was recorded.\nThe data was expressed as x±s, analyzed by SPSS 13.0 statistical software by means of One-Way ANOVA test, the homogeneity of variance was tested by LSD and SNK test."}, "ICR mice [3]": {"tested_on": "ICR mice", "test": "Tail suspension test in mice, administration by gavage", "assay_type": "in vivo", "details": "3.5 mg/kg/d by gavage for two days; 1 h after administration; over 4 min", "protocol": "In the second day, 1 h after the administration, the tail of mouse (2 cm away from the tip of the tail) was fixed to the connection line of 100 g tension transducer by adhesive plaster, and the mouse was hung upside down, with the head about 15 cm away from the experimental bench, two animals isolated from each other by a cardboard were simultaneously tested for each time. The transducer was connected to the Medlab bio-signals acquisition and processing system, after 2 min of adaption, the result over 4 min was recorded, and the immobility situation was converted into the time(s). The experimental data were expressed as X±SD, and the analysis of variance for the experimental results was carried out by SPSS 11.5 statistical software (purchased from SPSS Inc., USA)."}, "[4]": {"tested_on": "rats with chronic stress induced depression model", "test": "Open-field test, chronic stress induced depression", "assay_type": "in vivo, SD rats", "details": "3.5 mg/kg/day gavage for 21 days; 3 minutes", "protocol": "The gavage was carried out along with the model establishment, once a day, for 21 days. […] Referring to the methods in the literature (Xu Jing, Li Xiaoqiu, Establishment and evaluation of the model of chronic stress induced depression, Chinese Journal of Behavioral Medical Science, 2003, 12(1): 14 16), the model was established (i.e., establishing animal model of anti-depression by means of CUMS): the foot electric shock (voltage: […] (5 minutes), drying at 45° C. (5 minutes), tail nipping (1 min), wet feeding (wet mat), reversed day and night (24 hours), fasting (24 hours), water deprivation (24 hours) were randomly scheduled within 21 days, one kind of stimulations was given for each day, except for the animals of vehicle group, the others were separately caged with free diet, at the room temperature of (24±1)° C., with the relative humidity of (60±10)%. The open-field device was of 40 cm in height, 80 cm in both length and width, without cap, the inner walls and the bottom of the device are black, and the bottom was divided into 25 squares with equal area. The numbers of squares that the animals pass through were designated as the score of horizontal movement, and the numbers of standing (with the forelegs above 1 cm away from the ground) were designated as the score of vertical movement. Each animal was measured for one time, 3 minutes for each measurement. All parameters to be tested were expressed as Mean±SD (X±s), and tested by means of analysis of variance (ANOVA) in SPSS 12.0 software (purchased from SPSS Inc., USA), p<0.05 means that there was a significant difference."}, "ICR mice [5]": {"tested_on": "ICR mice", "test": "Tail suspension test in mice, intraperitoneal injection", "assay_type": "in vivo", "details": "7 mg/kg intraperitoneal injection, 1 day; 30 min after administration", "protocol": "Normal mice were randomly divided into three groups (n=20 for each group) according to their weights, i.e. model group, high-dose group (14 mg/kg) and medium-dose group (7 mg/kg) of Albiflorin. Intraperitoneal injection group was subjected to the administration for 1 day. Each group was administered at a dose of 0.2 ml/10 g weight.\nThe test of intraperitoneal injection group was performed at 30 min after the administration. The tail of mouse 2 cm away from the tip of the tail) was fixed to the connection line of 100 g tension transducer with adhesive plaster, and the mouse was hung upside down, with the head about 15 cm away from the experimental bench, two animals isolated from each other by a cardboard were simultaneously tested for each time. The transducer was connected into the Medlab bio-signals acquisition and processing system, after 2 mins of adaption, the result over 4 mins was recorded, and the immobility situation was converted into the time(s).\nThe experimental data was expressed as X±SD, and the analysis of variance for the experimental results was carried out by SPSS 11.5 statistical software (purchased from SPSS Inc., USA)."}},
  "data": [
    {"smiles": "C[C@]12C[C@@H](O)[C@@H]3C[C@@]1(O[C@@H]1O[C@H](CO)[C@@H](O)[C@H](O)[C@H]1O)[C@@]3(COC(=O)c1ccccc1)C(=O)O2", "note": "[Albiflorin]", "values": [
      {"measurement": "5-HT", "setting": "[1]", "value": "188.43 ± 67.91"},
      {"measurement": "Immobility Time", "setting": "ICR mice [2]", "value": "44.85 ± 29.695", "unit": "s"},
      {"measurement": "Immobility Time", "setting": "ICR mice [3]", "value": "83.82 ± 35.099", "unit": "s"},
      {"measurement": "Score of horizontal movement", "setting": "[4]", "value": "21.42 ± 20.38"},
      {"measurement": "Score of vertical movement", "setting": "[4]", "value": "4.67 ± 6.87"},
      {"measurement": "Immobility Time", "setting": "ICR mice [5]", "value": "82.350 ± 52.5132", "unit": "s"}
    ]}
  ]
}
